The source of these data is PMC5771863 (Anesthesiology, 2018).

Common to all, as to format: cell-based
The target in assay [1] is α1β3F293Cγ2L GABAA receptors (Homo sapiens, UniProt P14867+P28472, F318C). The conditions noted are these: β3F293C; […] ETO, 5 μM PRO, […] ALX.
Assay [2] has as its target T1, α1β3F289Cγ2L GABAA receptors (Homo sapiens, UniProt P14867+P28472, F314C). The conditions noted are these: β3F289C; […] ETO, 5 μM PRO, […] ALX.
Assay [3] concerns the target T1, α1β3F289Cγ2L GABAA receptors. The conditions noted are these: pCMBS + maximal GABA.
Assay [4] addresses T2, α1β3M286Cγ2L GABAA receptors (Homo sapiens, UniProt P14867+P28472, M311C). As to the kind of experiment: GABA EC5 enhancement by anesthetics, voltage clamp in Xenopus oocytes. The conditions noted are these: β3M286C; […] ETO, 5 μM PRO, […] ALX.
Assay [5] addresses T2, α1β3M286Cγ2L GABAA receptors. The conditions noted are these: β3M286C; pCMBS + maximal GABA; 10 μM ETO, 20 μM PRO, 10 μM ALX.
Assay [6] concerns the target α1β3L297Cγ2L GABAA receptors (Homo sapiens, UniProt P14867+P28472, L322C). As to the kind of experiment: GABA EC5 enhancement by anesthetics, voltage clamp in Xenopus oocytes. To be noted: β3L297C; […] ETO, 5 μM PRO, […] ALX.
The target in assay [7] is α1β3E298Cγ2L GABAA receptors (Homo sapiens, UniProt P14867+P28472, E323C). Described as above. To be noted: β3E298C; […] ETO, 5 μM PRO, […] ALX.
The target in assay [8] is α1β3V290Cγ2L GABAA receptors (Homo sapiens, UniProt P14867+P28472, V315C). To be noted: α1β3V290Cγ2L; pCMBS + maximal GABA; 10 μM ETO, 20 μM PRO, 10 μM ALX.
The target of assay [9] is α1β3T262Cγ2L GABAA receptors (Homo sapiens, UniProt P14867+P28472, T287C). As to the kind of experiment: Substituted cysteine modification-protection. To be noted: pCMBS + maximal GABA, 10 μM ETO, 20 μM PRO.
Setting [10] is: 10 μM ETO, 20 μM PRO, 10 μM ALX.

Where two headings read alike, the source gives them in different places.

T1 sequence (P14867 28-456): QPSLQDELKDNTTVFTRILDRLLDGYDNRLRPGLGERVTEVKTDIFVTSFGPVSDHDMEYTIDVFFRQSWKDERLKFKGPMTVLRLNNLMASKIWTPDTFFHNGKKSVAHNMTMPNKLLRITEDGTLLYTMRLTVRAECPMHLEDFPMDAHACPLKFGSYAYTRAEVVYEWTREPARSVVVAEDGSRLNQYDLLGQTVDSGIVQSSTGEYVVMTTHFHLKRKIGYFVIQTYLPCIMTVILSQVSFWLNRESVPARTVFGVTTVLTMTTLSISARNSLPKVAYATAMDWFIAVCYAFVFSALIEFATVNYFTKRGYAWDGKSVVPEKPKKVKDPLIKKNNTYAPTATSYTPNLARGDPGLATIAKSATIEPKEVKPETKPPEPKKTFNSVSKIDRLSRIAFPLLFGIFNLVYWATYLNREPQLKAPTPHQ
T1 sequence (P28472 26-473 F314C): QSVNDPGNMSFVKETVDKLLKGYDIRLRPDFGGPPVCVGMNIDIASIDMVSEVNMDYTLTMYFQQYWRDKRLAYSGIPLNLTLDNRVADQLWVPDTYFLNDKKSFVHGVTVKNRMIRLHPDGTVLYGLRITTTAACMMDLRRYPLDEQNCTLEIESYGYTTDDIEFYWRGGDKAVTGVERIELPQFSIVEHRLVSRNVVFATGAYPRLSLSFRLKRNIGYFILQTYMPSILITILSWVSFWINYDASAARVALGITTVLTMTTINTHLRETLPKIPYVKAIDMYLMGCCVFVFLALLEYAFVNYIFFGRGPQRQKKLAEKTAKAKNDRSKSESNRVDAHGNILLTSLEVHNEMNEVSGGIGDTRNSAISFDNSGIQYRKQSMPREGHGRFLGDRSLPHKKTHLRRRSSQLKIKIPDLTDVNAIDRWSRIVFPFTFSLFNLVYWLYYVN
T1 sequence (P18507 40-475 partner): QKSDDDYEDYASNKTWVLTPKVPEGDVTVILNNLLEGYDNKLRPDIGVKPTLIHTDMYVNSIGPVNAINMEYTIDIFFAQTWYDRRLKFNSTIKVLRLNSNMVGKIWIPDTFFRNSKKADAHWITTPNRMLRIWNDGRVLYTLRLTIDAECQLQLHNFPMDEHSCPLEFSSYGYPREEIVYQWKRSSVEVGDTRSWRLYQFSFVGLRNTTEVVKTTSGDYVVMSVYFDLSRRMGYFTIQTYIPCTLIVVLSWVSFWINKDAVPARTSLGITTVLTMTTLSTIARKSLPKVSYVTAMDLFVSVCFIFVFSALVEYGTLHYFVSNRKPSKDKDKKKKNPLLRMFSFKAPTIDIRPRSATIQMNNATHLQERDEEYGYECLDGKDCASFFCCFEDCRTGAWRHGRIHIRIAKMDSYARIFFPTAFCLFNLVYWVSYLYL
T2 sequence (P14867 28-456): as the sequence (P14867 28-456) above
T2 sequence (P28472 26-473 M311C): as the sequence (P28472 26-473 F314C) above, with M286C, C289F counted along it
T2 sequence (P18507 40-475 partner): as the sequence (P18507 40-475 partner) above
Sequence of α1β3V290Cγ2L GABAA receptors (P14867 28-456, stated change not applied): as the sequence (P14867 28-456) above
Sequence of α1β3V290Cγ2L GABAA receptors (P28472 26-473 V315C): as the sequence (P28472 26-473 F314C) above, with C289F, V290C counted along it
Sequence of α1β3V290Cγ2L GABAA receptors (P18507 40-475 partner): as the sequence (P18507 40-475 partner) above
Sequence of α1β3T262Cγ2L GABAA receptors (P14867 28-456): as the sequence (P14867 28-456) above
Sequence of α1β3T262Cγ2L GABAA receptors (P28472 26-473 T287C): as the sequence (P28472 26-473 F314C) above, with T262C, C289F counted along it
Sequence of α1β3T262Cγ2L GABAA receptors (P18507 40-475 partner): as the sequence (P18507 40-475 partner) above
Sequence of α1β3F293Cγ2L GABAA receptors (P14867 28-456): as the sequence (P14867 28-456) above
Sequence of α1β3F293Cγ2L GABAA receptors (P28472 26-473 F318C): as the sequence (P28472 26-473 F314C) above, with C289F, F293C counted along it
Sequence of α1β3F293Cγ2L GABAA receptors (P18507 40-475 partner): as the sequence (P18507 40-475 partner) above
Sequence of α1β3E298Cγ2L GABAA receptors (P14867 28-456): as the sequence (P14867 28-456) above
Sequence of α1β3E298Cγ2L GABAA receptors (P28472 26-473 E323C): as the sequence (P28472 26-473 F314C) above, with C289F, E298C counted along it
Sequence of α1β3E298Cγ2L GABAA receptors (P18507 40-475 partner): as the sequence (P18507 40-475 partner) above
Sequence of α1β3L297Cγ2L GABAA receptors (P14867 28-456): as the sequence (P14867 28-456) above
Sequence of α1β3L297Cγ2L GABAA receptors (P28472 26-473 L322C): as the sequence (P28472 26-473 F314C) above, with C289F, L297C counted along it
Sequence of α1β3L297Cγ2L GABAA receptors (P18507 40-475 partner): as the sequence (P18507 40-475 partner) above

On to `CCOC(=O)c1cncn1[C@H](C)c1ccccc1` [ETO, R-Etomidate], for which the “EC5 enhancement compared to wild-type” value in [1] is listed as “increased”; in assay [2], “reduced”; in assay [4], “reduced”; in assay [6], “increased”; in [7], “increased”. Further, the “effect on apparent rate of pCMBS modification” value is “weakly blocked” in assay [3] (setting [10]), “block modification” in assay [5], “strongly blocked” in assay [8] and “unaffected” in assay [9].
With `CC(C)c1cccc(C(C)C)c1O` [PRO, 2,6-diisopropylphenol], the “EC5 enhancement compared to wild-type” value in assay [1], in assay [2] and in assay [4] was “reduced” each time. For the same compound, the “effect on apparent rate of pCMBS modification” value in assay [3] (setting [10]) is on record as “unaffected”; in assay [3] (50 μM ETO, 100 μM PRO, 50 μM ALX), “neither 100 μM PRO nor 50 μM ALX inhibited modification”; in [5] it was “block modification”; in assay [8] it was “strongly blocked”; in assay [9], “accelerated”.
